In one data set the target is cGMP-specific 3',5'-cyclic phosphodiesterase (Homo sapiens, UniProt O76074). Briefly: Inhibition of PDE5.
`CCCCN1C(=O)[C@H]2Cc3c([nH]c4ccccc34)[C@@H](c3cccnc3)N2C1=O` (relative stereo) gave an IC50 of 0.0912 µM.
The same measure, in the same setting: then `CCOc1ccc([C@H]2c3[nH]c4ccccc4c3C[C@@H]3C(=O)N(CC)C(=O)N23)cc1` (relative stereo), with 0.00708 µM.
Still for that read-out and setting: then `CCOc1ccc([C@@H]2c3[nH]c4ccccc4c3C[C@@H]3C(=O)N(Cc4ccccc4)C(=O)N23)cc1` (relative stereo), with 0.00398 µM; and `CCCCN1C(=O)[C@H]2Cc3c([nH]c4ccccc34)[C@H](c3ccccc3)N2C1=O` (relative stereo), with 0.02 µM; and `CCOc1ccc([C@@H]2c3[nH]c4ccccc4c3C[C@@H]3C(=O)N(C4CCCCC4)C(=O)N23)cc1`, with 0.00708 µM.
Same read-out and setting: under `CCOc1ccc([C@@H]2c3[nH]c4ccccc4c3C[C@@H]3C(=O)N(C)C(=O)N23)cc1` (relative stereo) stands 0.01 µM; under `CCOc1ccc([C@H]2c3[nH]c4ccccc4c3C[C@@H]3C(=O)NC(=O)N23)cc1` (relative stereo), 0.02 µM; under `CCCc1n[nH]c2c(=O)[nH]c(-c3ccccc3)nc12`, 0.0813 µM.
With `CCCCN1C(=O)[C@H]2Cc3c([nH]c4ccccc34)[C@H](c3ccc(Cl)cc3)N2C1=O` (relative stereo), half-maximal inhibition (IC50) required 0.02 µM.
`CCOc1ccc([C@H]2c3[nH]c4ccccc4c3C[C@@H]3C(=O)N(Cc4cccnc4)C(=O)N23)cc1` (relative stereo) had a half-inhibitory concentration (IC50) of 0.02 µM.
On the same count and under the same terms, then `CCOc1ccc([C@@H]2c3[nH]c4ccccc4c3C[C@@H]3C(=O)N(CC)C(=O)N23)cc1` (relative stereo), with 0.01 µM.
The same measure, in the same setting: then `CCCc1nn(C)c2c(=O)[nH]c(-c3ccccc3)nc12`, with 4.47 µM; and `CCOc1ccc([C@H]2c3[nH]c4ccccc4c3C[C@@H]3C(=O)N(CCN(C)C)C(=O)N23)cc1` (relative stereo), with 0.0302 µM; and `CCCCN1C(=O)[C@H]2Cc3c([nH]c4ccccc34)[C@@H](c3ccc(Cl)cc3)N2C1=O` (relative stereo), with 0.0501 µM.
Same read-out and setting: then `CCCc1nn(C)c2c(=O)[nH]c(-c3cc(S(=O)(=O)N4CCN(CCO)CC4)ccc3OCC)nc12` [LODENAFIL], with 0.00191 µM; and `CCCc1nn(C)c2c(=O)[nH]c(-c3cc(S(=O)(=O)N4CCC(C(N)=O)CC4)ccc3OCC)nc12`, with 0.00209 µM.
As to `CCOc1ccc([C@H]2c3[nH]c4ccccc4c3C[C@@H]3C(=O)N(CCc4ccccn4)C(=O)N23)cc1` (relative stereo), the half-maximal inhibitory concentration (IC50) was 0.00603 µM.
For the compound `CCCCN1C(=O)[C@H]2Cc3c([nH]c4ccccc34)[C@H](c3ccccc3OC)N2C1=O` (relative stereo), 1 µM corresponded to half-maximal inhibition (IC50).
Still for that read-out and setting: under `CCCCN1C(=O)[C@H]2Cc3c([nH]c4ccccc34)[C@@H](c3ccoc3)N2C1=O` (relative stereo) stands 0.1 µM.
Still for that read-out and setting: then `CCOc1ccc([C@H]2c3[nH]c4ccccc4c3C[C@@H]3C(=O)N(C4CCCCC4)C(=O)N23)cc1` (relative stereo), with 0.00302 µM; and `CCCCN1C(=O)[C@H]2Cc3c(n(C)c4ccccc34)[C@H](c3ccc(OC)cc3)N2C1=O` (relative stereo), with 2 µM.
On the same count and under the same terms, then `CCCc1nn(C)c2c(=O)[nH]c(-c3ccccc3O)nc12`, with 1 µM; and `CCCCN1C(=O)[C@H]2Cc3c([nH]c4ccccc34)[C@@H](c3cccc(Cl)c3)N2C1=O` (relative stereo), with 0.0501 µM; and `CCCCN1C(=O)[C@H]2Cc3c([nH]c4ccccc34)[C@H](c3cccc(Cl)c3)N2C1=O` (relative stereo), with 0.0501 µM.
`CCOc1ccc([C@H]2c3[nH]c4ccccc4c3C[C@@H]3C(=O)N(CCn4cccc4)C(=O)N23)cc1` (relative stereo) had a half-maximal inhibitory concentration (IC50) of 0.1 µM.
`CCCCN1C(=O)[C@H]2Cc3c([nH]c4ccccc34)[C@H](c3ccc(C#N)cc3)N2C1=O` (relative stereo) had an IC50 of 0.302 µM.
In turn, `CCCCN1C(=O)[C@H]2Cc3c([nH]c4ccccc34)[C@@H](c3ccc(C#N)cc3)N2C1=O` (relative stereo) gave a half-maximal inhibitory concentration (IC50) of 0.912 µM.
Same read-out and setting: then `CCCCN1C(=O)[C@H]2Cc3c([nH]c4ccccc34)[C@@H](c3ccncc3)N2C1=O` (relative stereo), with 0.302 µM; and `CCOc1ccc([C@H]2c3[nH]c4ccccc4c3C[C@@H]3C(=O)N(Cc4ccccc4)C(=O)N23)cc1` (relative stereo), with 0.0182 µM; and `CCCCN1C(=O)[C@H]2Cc3c([nH]c4ccccc34)[C@@H](c3ccsc3)N2C1=O` (relative stereo), with 0.0302 µM.
Still for that read-out and setting: then `CCCCN1C(=O)[C@H]2Cc3c([nH]c4ccccc34)[C@@H](c3ccccc3)N2C1=O` (relative stereo), with 0.0603 µM.

System in another data set: not listed separately
The experiment in a line: Octanol-water partition coefficient, log P of the compound. The data set is classed as physicochemical.
As for `CCCCN1C(=O)C2=C(N=C(c3cc(S(=O)(=O)N4CCN(C)CC4)ccc3OCC)NC2)C1=O`, the lipophilicity (logP) was found to be 0.984.
For `CN1CC(=O)N2[C@H](c3ccc4c(c3)OCO4)c3[nH]c4ccccc4c3C[C@@H]2C1=O`, the logP came to 2.36.
Still for that read-out and setting: then `CCCc1nn(C)c2c(=O)[nH]c(-c3cc(S(=O)(=O)N4CCN(C)CC4)ccc3OCC)nc12`, with 2.51.
With `CCCCN1C(=O)c2nc(-c3cc(S(=O)(=O)N4CCN(C)CC4)ccc3OCC)[nH]c(=O)c2C1=O`, the log partition coefficient (logP) is 1.86.
Compound `CCCc1nc(C)c2c(=O)[nH]c(-c3cc(S(=O)(=O)N4CCN(CC)CC4)ccc3OCC)nn12` returned a logP of 2.56.
Same read-out and setting: then `CCCCN1C(=O)[C@H]2C(=O)NC(c3cc(S(=O)(=O)N4CCN(CC)CC4)ccc3OCC)=NN2C1=O`, with 0.574.
Compound `CCCCN1C(=O)[C@H]2CNC(c3cc(S(=O)(=O)N4CCN(CC)CC4)ccc3OCC)=NN2C1=O` displayed a logP of 1.25.
Same read-out and setting: then `CCOc1ccc(S(=O)(=O)N2CCN(C)CC2)cc1C1=CC[C@@H]2C(=O)N(C)CC(=O)N2C1`, with 0.416.
Still for that read-out and setting: under `CCCCN1C(=O)[C@H]2CC=C(c3cc(S(=O)(=O)N4CCN(CC)CC4)ccc3OCC)CN2C1=O` stands 2.77; under `CCCCN1C(=O)[C@H]2CC=C(c3cc(S(=O)(=O)N4CCN(C)CC4)ccc3OCC)CN2C1=O`, 2.4.
For the compound `CCOc1ccc(S(=O)(=O)N2CCN(CC)CC2)cc1C1=CC[C@@H]2C(=O)N(C)CC(=O)N2C1`, the logP is 0.792.

Target in the next data set: not listed separately
The experiment in a line: Inhibition of PDE5.
Regarding `CCCc1nn(C)c2c(=O)[nH]c(-c3cc(S(=O)(=O)N4CCNCC4)ccc3OCC)nc12`, the pIC50 is 8.24.
Still for that read-out and setting: then `CCCc1nn(C)c2c(=O)[nH]c(-c3ccccc3OCC3CC3)nc12`, with 6.02; and `CCCc1nn(C)c2c(=O)[nH]c(-c3ccccc3[N+](=O)[O-])nc12`, with 5.36.

By IC50 is commonly meant the point on the concentration scale where inhibition reaches its midpoint. A low value points to higher potency. In general, logP refers to a log measure of how a compound divides between an organic and an aqueous phase. As a reminder, the pIC50 is −log10 of the IC50, conventionally taken in molar units. Low readings indicate a high IC50, high ones a low IC50.

The values are drawn from ChEMBL document CHEMBL1156541 (Bioorg Med Chem, 2008).
